For 20 compounds, IC50 results are on record in patent US7247734B2 (Vernalis (Cambridge) Limited, priority 2001, dated 2007).

The target in the first assay is T1, yeast HSP90 (Saccharomyces cerevisiae, UniProt P02829).
T1 construct: made in house; host or cells: E. coli
T1 sequence (P02829 whole entry, looked up): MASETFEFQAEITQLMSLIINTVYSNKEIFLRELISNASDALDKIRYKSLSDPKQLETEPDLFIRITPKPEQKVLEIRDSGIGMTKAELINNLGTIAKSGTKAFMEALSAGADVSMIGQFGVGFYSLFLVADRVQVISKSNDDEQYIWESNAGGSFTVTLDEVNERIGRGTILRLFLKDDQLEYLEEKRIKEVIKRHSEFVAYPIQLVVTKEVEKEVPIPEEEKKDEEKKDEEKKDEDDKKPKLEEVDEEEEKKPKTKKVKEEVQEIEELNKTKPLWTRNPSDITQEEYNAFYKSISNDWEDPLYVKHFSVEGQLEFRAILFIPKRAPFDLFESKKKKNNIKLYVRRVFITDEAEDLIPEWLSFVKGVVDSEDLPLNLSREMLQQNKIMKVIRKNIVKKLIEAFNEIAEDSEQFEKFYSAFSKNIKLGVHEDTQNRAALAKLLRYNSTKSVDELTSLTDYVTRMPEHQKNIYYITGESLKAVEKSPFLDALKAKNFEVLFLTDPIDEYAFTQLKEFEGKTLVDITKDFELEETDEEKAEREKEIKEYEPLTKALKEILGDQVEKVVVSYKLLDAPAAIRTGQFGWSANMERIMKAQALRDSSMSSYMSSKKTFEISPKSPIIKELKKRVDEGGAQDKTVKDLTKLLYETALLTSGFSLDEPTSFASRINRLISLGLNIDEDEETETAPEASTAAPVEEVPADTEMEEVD
Description: Malachite green HSP90 ATPase assay. The assay is classed as biochemical. The settings on record: Hsp90 IC50, activity class. From the text: Two methods have been developed to measure the intrinsic ATPase activity of HSP90, using yeast HSP90 as a model system. The first method utilises a regenerating coupled enzyme assay. The second assay, based on the use of malachite green for the measurement of inorganic phosphate, was designed for high throughput screening (HTS) to identify novel HSP90 inhibitor drug candidates.
Colorimetric assays for the determination of phosphate, based on the formation of a phosphomolybdate complex, can be carried out in a few steps with inexpensive reagents and are well suited to the automation required for high throughput screening (see, e.g., Cogan et al., 1999). Enzymes that release inorganic phosphate are assayed using the reaction of the cationic dye, malachite green, with the a complex formed by a reaction of the inorganic phosphate with molybdate to generate a blue-green colour with an absorbance maximum at 610 nm (see, e.g., Baykov et al., 1988; Harder et al., 1994; Maehama et al., 2000). The method has been used in both high throughput (see, e.g., Rumsfeld et al., 2000) and ultra-high throughput screening formats (see, e.g., Layery et al., 2001) for a variety of non-HSP90 ATPases. However, this method is complicated by the non-enzymatic hydrolysis of ATP in the presence of acidic malachite green reagent, causing an increase in colour (see, e.g., Chan et al., 1986; Henkel et al., 1988). This process is mediated by molybdate and can be overcome by the addition of sodium citrate immediately after the reagent (see, e.g., Lanzetta et al., 1979; Schirmer et al., 1998; Baginski et al., 1975). This modification has been adapted to the 96-well microtitre plate assay previously described for other ATPases (see, e.g., Lanzetta et al., 1979) to produce the following protocol for HSP90 ATPase, which is suitable for high throughput screening.
Chemicals are of the highest purity commercially available and all aqueous solutions are made up in AR water. Because of the need to minimise contamination with inorganic phosphate, precautions should be taken with solutions and apparatus used in the assays. Glassware and pH meters are rinsed with double distilled or deionised water before use and, wherever possible, plastic ware should be used. Gloves are worn for all procedures. • (1) Immulon 96-well (Thermo Labsystems, Basingstoke, UK) or Cliniplate 384-well flat-bottomed polystyrene multiwell plates (Thermo Labsystems). • (2) Assay buffer of (a) 100 mM Tris-HCl, pH 7.4, (b) 20 mM KCl, (c) 6 mM MgCl2. Stored at 4° C. • (3) 0.0812% (w/v) malachite green (M 9636, Sigma Aldrich Ltd., Poole, UK). Stored at room temperature. • (4) 2.32% (w/v) polyvinyl alcohol USP (P 1097, Sigma Aldrich Ltd, Poole, UK) in boiling water (see Comment 1), allowed to cool, and stored at room temperature. • (5) 5.72% (w/v) ammonium molybdate in 6 M hydrochloric acid. Stored at room temperature. • (6) 34% (w/v) sodium citrate. Stored at room temperature. • (7) ATP, disodium salt, special quality (519979, Boehringer Mannheim, Lewes, UK). Stored at 4° C. • (8) E. coli expressed yeast HSP90 protein, purified >95% (see, e.g., Panaretou et al., 1998) and stored at −80° C. as 10 μl aliquots containing 0.5 mg of protein. Method
The following protocol was used: • (1) On the day of use, prepare the malachite green reagent from the stock solutions. Mix (a) 2 parts of malachite green, (b) 1 part of polyvinyl alcohol, (c) 1 part of ammonium molybdate, and (d) 2 parts of water. Initially, the reagent is a dark brown colour, but after standing at room temperature for about 2 h, this becomes a golden yellow colour and is ready for use. • (2) For the high throughput screening assays, the test compounds are dissolved at 200 μM in 2.0% DMSO and contained in daughter plates derived from the chemical libraries. Transfer 5 μl of each sample from the daughter plate to each well of the assay plate using automated equipment (see Comment 3). This represents a final concentration in the well of 40 μM.
The IC50 is the concentration that gives 50% inhibition. The compound `Cc1[nH]nc(-c2cc(Cl)c(O)cc2O)c1-c1ccc2c(c1)OCCO2` [Example 109] yielded an IC50 of less than 10 µM.

Still in this assay, the particulars now being: activity class; read-out: Hsp90 IC50.
Take `Cc1c(CC(=O)NCc2ccc(-c3c[nH]nc3-c3cc(Cl)c(O)cc3O)cc2)c(=O)oc2cc(N)c(S(=O)(=O)O)cc12` [Example 105]: the concentration for half-maximal inhibition (IC50) is less than 10 µM.

As to `CCOc1cccc(-c2ccc(-c3c[nH]nc3-c3cc(Cl)c(O)cc3O)cc2)c1` [Example 72], the IC50 was less than 10 µM.

`O=C(O)COc1ccc(-c2n[nH]cc2-c2ccc3c(c2)OCCO3)c(O)c1` [Example 125]: the IC50 was more than 10 µM.

`COc1ccc(-c2cccc(-c3c[nH]nc3-c3cc(Cl)c(O)cc3O)c2)cc1OC` [Example 68]: the IC50 was in the range of 10 to 100 µM.

For `Cc1[nH]nc(-c2cc(Cl)c(O)cc2O)c1-c1ccc(Br)cc1` [Example 58], the IC50 is less than 10 µM.

On to `Cc1nc(-c2c[nH]nc2-c2ccc(O)cc2O)cs1` [Example 129], for which the IC50 is more than 10 µM.

As to `Cc1[nH]nc(-c2cc(Cl)c(O)cc2O)c1-c1ccccc1Br` [Example 69], the IC50 is 10 to 100 µM.

Take `CCCc1cc(-c2n[nH]cc2-c2ccc3c(c2)OCO3)c(O)cc1O` [Example 140]: the IC50 is more than 10 µM.

As for `CCCc1cc(-c2n[nH]c(C)c2-c2ccc(C(=O)OCC)o2)c(O)cc1O` [Example 98], the IC50 fell in the range of 10 to 100 µM.

Take `Cc1[nH]nc(-c2cc(Cl)c(O)c(Cl)c2O)c1-c1ccccc1` [Example 138]: the IC50 was more than 10 µM.

`CCc1cc(-c2n[nH]cc2-c2ccc(OC)c(OC)c2)c(O)cc1O` [Example 50]: the IC50 is less than 10 µM.

With `COc1ccc(-c2c(-c3cc(CCc4ccccc4)c(O)cc3O)n[nH]c2C)cc1` [Example 95], the 50% inhibitory concentration (IC50) was less than 10 µM.

As to `CCc1cc(-c2n[nH]c(C)c2-c2nc3ccccc3s2)c(O)cc1O` [Example 146], the IC50 is more than 10 µM.

With `Cc1[nH]nc(-c2ccc(C(=O)O)cc2)c1-c1ccc2c(c1)OCCO2` [Example 115], the concentration for half-maximal inhibition (IC50) is more than 10 µM.

Consider `CCc1cc(-c2n[nH]cc2-c2cscn2)c(O)cc1O` [Example 91], for which the 50% inhibitory concentration (IC50) is 10 to 100 µM.

With `Oc1ccc(-c2[nH]ncc2-c2ccccc2)c(O)c1` [Example 55], the IC50 was in the range of 10 to 100 µM.

As to `O=C(NCc1ccc(-c2c[nH]nc2-c2cc(Cl)c(O)cc2O)cc1)c1ccc(-c2c3ccc(=O)cc-3oc3cc(O)ccc23)c(C(=O)O)c1` [Example 106, N-{4-[3-(5-Chloro-2,4-dihydroxy-phenyl)-1H-pyrazol-4-yl]-benzyl}-6-(6-hydroxy-3-oxo-3H-xanthen-9-yl)-isophthalamic acid], the IC50 was less than 10 µM.

Staying with this assay, now noted: activity range, ATPase assay; read-out: ATPase IC50.
Take `CNC(=O)c1ccc(-c2c[nH]nc2-c2cc(Cl)c(O)cc2O)cc1` [Example 180]: the IC50 was less than 50 µM.

Turning to `COc1ccc(-c2c(-c3cc(Cl)c(O)cc3O)n[nH]c2Br)cc1` [Example 179, 4-[5-Bromo-4-(4-methoxy-phenyl)-1H-pyrazol-3-yl]-6-chloro-benzene-1,3-diol], the IC50 was less than 50 µM.
